{"source": "patent US5739081A", "about": "“Water dispersible granules of liquid pesticides” (ICI Australia Operations Proprietary Ltd., priority 1992, dated 1998)", "origin": "cited, not measured here"}
{"conditions": "in water", "units": {"Solubility in water": "mg/L"}}
{"molecule": "C#CCON=C1CC2CCC1(C)C2(C)C", "note": "(racemic) [Heptopargil]", "Solubility in water": 1000}
{"molecule": "CCCCOCN(C(=O)CCl)c1c(CC)cccc1CC", "note": "[Butachlor]", "Solubility in water": 23}
{"molecule": "CCOP(=S)(NC(C)CC)Oc1cc(C)ccc1[N+](=O)[O-]", "note": "(stereo not drawn) [Butamifos]", "Solubility in water": 5.1}
{"molecule": "CCSC(=O)N(CC(C)C)CC(C)C", "note": "[Butylate]", "Solubility in water": 46}
{"molecule": "CCOP(=O)(OCC)OC(=CCl)c1ccc(Cl)cc1Cl", "note": "[Chlorfenvinphos]", "Solubility in water": 145}
{"molecule": "CC1(C)C(/C=C(\\Cl)C(F)(F)F)C1C(=O)OC(C#N)c1cccc(Oc2ccccc2)c1", "note": "(stereo not drawn) [Cyhalothrin]", "Solubility in water": 0.003}
{"molecule": "CCSCCSP(=O)(OC)OC", "note": "[Demeton-S-methyl]", "Solubility in water": 3300}
{"molecule": "CCOP(=S)(OCC)SCCSCC", "note": "[Disulfoton]", "Solubility in water": 25}
{"molecule": "COP(=S)(OC)Oc1ccc([N+](=O)[O-])c(C)c1", "note": "[Fenitrophion]", "Solubility in water": 14}
{"molecule": "CC(Cc1ccc(C(C)(C)C)cc1)CN1C[C@@H](C)O[C@@H](C)C1", "note": "(stereo partly drawn) [Fenpropimorph]", "Solubility in water": 10}
{"molecule": "CCCCOC(=O)[C@@H](C)Oc1ccc(Oc2ccc(C(F)(F)F)cn2)cc1", "note": "[Fluazifop-P-butyl]", "Solubility in water": 1}
{"molecule": "COP(=O)(OC)OC1=C(Cl)C2C=CCC12", "note": "(stereo not drawn) [Heptenophos]", "Solubility in water": 2200}
{"molecule": "CCOC(=O)/C=C(C)/C=C/CC(C)CCCC(C)C", "note": "(stereo not drawn) [Hydroprene]", "Solubility in water": 0.54}
{"molecule": "CCOP(=S)(NC(C)C)Oc1ccccc1C(=O)OC(C)C", "note": "(stereo not drawn) [Isofenphos]", "Solubility in water": 23.8}
{"molecule": "CC1(C)[C@H](C(=O)O[C@H](C#N)c2cccc(Oc3ccccc3)c2)[C@@H]1/C=C(\\Cl)C(F)(F)F", "note": "[Lambda-cyhalothrin]", "Solubility in water": 0.005}
{"molecule": "CCOP(=O)(N=C1SCC(C)S1)OCC", "note": "(stereo not drawn) [Mephosfolan]", "Solubility in water": 57}
{"molecule": "CCc1cccc(C)c1N(C(=O)CCl)C(C)COC", "note": "(stereo not drawn) [Metolachlor]", "Solubility in water": 530}
{"molecule": "CNC(=O)CSP(=O)(OC)OC", "note": "[Omethoate]", "Solubility in water": 500}
{"molecule": "CCOP(=S)(OCC)Oc1ccc([N+](=O)[O-])cc1", "note": "[Parathion]", "Solubility in water": 24}
{"molecule": "CCCCN(CC)C(=O)SCCC", "note": "[Pebulate]", "Solubility in water": 60}
{"molecule": "CCN(CC)c1nc(C)cc(OP(=S)(OC)OC)n1", "note": "[Pirimiphos-methyl]", "Solubility in water": 5}
{"molecule": "C#CCOS(=O)OC1CCCCC1Oc1ccc(C(C)(C)C)cc1", "note": "(stereo not drawn) [Propargite]", "Solubility in water": 1.9}
{"molecule": "CCNP(=S)(OC)O/C(C)=C/C(=O)OC(C)C", "note": "(stereo not drawn) [Propetamphos]", "Solubility in water": 110}
{"molecule": "CCCC1COC(Cn2cncn2)(c2ccc(Cl)cc2Cl)O1", "note": "(stereo not drawn) [Propiconazole]", "Solubility in water": 110}
{"molecule": "CCCN(CCC)C(=O)SCc1ccccc1", "note": "[Prosulfocarb]", "Solubility in water": 13.2}
{"molecule": "CCCSP(=O)(OCC)Oc1cnn(-c2ccc(Cl)cc2)c1", "note": "(stereo not drawn) [Pyraclofos]", "Solubility in water": 33}
{"molecule": "CON=C(Cc1cccnc1)c1ccc(Cl)cc1Cl", "note": "[Pyrifenox]", "Solubility in water": 115}
{"molecule": "CCN(CC)C(=O)SCc1ccc(Cl)cc1", "note": "[Thiobencarb]", "Solubility in water": 30}
{"molecule": "CCSCCSP(=S)(OC)OC", "note": "[Thiometon]", "Solubility in water": 200}
{"molecule": "CCCCCCCCCCCCCN1CC(C)OC(C)C1", "note": "(stereo not drawn) [Tridemorph]", "Solubility in water": 11.7}
{"conditions": "in water; in words"}
{"molecule": "CC(C)N(Cc1ccccc1)C(=O)C(C)(C)C", "note": "[Tebutam]", "Solubility in water": "Almost Insoluble"}
{"molecule": "Dinocap", "Solubility in water": "Sp. soluble"}
{"conditions": "water", "units": {"Solubility in water": "mg/L"}}
{"molecule": "CCOP(=S)(OCC)SCCl", "note": "[Chlorimephos]", "Solubility in water": 60}
{"molecule": "CCOP(=S)(OCC)Oc1cc(C)nc(C(C)C)n1", "note": "[Diazinon]", "Solubility in water": 40}
{"molecule": "CC1(C)C(C=C(Cl)Cl)C1C(=O)OCc1cccc(Oc2ccccc2)c1", "note": "(stereo not drawn) [Permethrin]", "Solubility in water": 0.2}
{"molecule": "CCCSP(=O)(OCC)Oc1ccc(Br)cc1Cl", "note": "(stereo not drawn) [Profenofos]", "Solubility in water": 20}
